Measurements taken from patent US20090246134A1, “COMPOSITIONS AND METHODS FOR MODULATING GATED ION CHANNELS” (PainCeptor Pharma Corporation, priority 2007, published 2009).
“And” between values parts separate entries of the source, which are not always exact repeats. Equal entries are not always repeated.

Columns and labels:
ASIC1a = target: T1, ASIC1a (Homo sapiens, UniProt P78348); test: Calcium-imaging (calcium mobilization, FLIPR) assay in ASIC1a expressing HEK293 cells; type: cell-based; set-up: host or cells: HEK293; settings: n=3-7, compounds not radiolabelled
T1 sequence (P78348 1-528): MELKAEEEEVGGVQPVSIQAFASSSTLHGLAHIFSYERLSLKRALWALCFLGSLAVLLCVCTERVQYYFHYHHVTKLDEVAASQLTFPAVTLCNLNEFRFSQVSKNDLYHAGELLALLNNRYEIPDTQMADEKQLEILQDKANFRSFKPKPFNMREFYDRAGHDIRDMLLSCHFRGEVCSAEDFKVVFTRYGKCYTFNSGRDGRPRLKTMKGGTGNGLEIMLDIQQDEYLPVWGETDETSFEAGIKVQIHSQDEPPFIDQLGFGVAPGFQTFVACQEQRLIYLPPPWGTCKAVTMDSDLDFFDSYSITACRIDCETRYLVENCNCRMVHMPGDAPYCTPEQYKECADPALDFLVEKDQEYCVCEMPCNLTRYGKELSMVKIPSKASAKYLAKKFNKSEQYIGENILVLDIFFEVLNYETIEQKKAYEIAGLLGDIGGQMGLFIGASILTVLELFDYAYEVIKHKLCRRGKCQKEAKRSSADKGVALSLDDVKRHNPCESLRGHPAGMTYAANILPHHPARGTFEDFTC
Description: ASIC1a expressing HEK293 cells are grown in culture medium (DMEM with 10% FBS), in polystyrene culture flasks ([…]) at 37° C. in a humidified atmosphere of 5% CO2. Confluency of cells should be 80-90% on day of plating. Cells are rinsed with 10 ml of PBS and re-suspended by addition of culture medium and trituration with a 25 ml pipette.
The cells are seeded at a density of approximately 1×10^6 cells/ml (100 μl/well) in black-walled, clear bottom, 96-well plates pre-treated with 10 mg/l poly-D-lysin (75 μl/well for ≧30 min). Plated cells were allowed to proliferate for 24 h before loading with dye.
Fluo-4/AM (1 mg, Molecular Probes) is dissolved in 912 μl DMSO. The Fluo-4/AM stock solution (1 mM) is diluted with culture medium to a final concentration of 2 μM (loading solution).
The culture medium is aspirated from the wells, and 50 μl of the Fluo-4/AM loading solution is added to each well. The cells are incubated at 37° C. for 30 min.
After the loading period, the loading solution is aspirated and the cells are washed twice with 100 μl modified Assay Buffer (145 mM NaCl, 5 mM KCl, 5 mM CaCl2, 1 mM MgCl2, 10 mM HEPES, pH 7.4) to remove extracellular dye. Following the second wash, 100 μl modified Assay Buffer is added to each well and the fluorescence is measured in FLIPR™ or FlexStation™ (Molecular Devices, USA), or any other suitable equipment known to the skilled in the art.
Temperature: Room temperature (20-22° C.)
First addition: 50 μl test solution at a rate of 30 μl/sec and a starting height of […]
Second addition: 50 μl MES solution (20 mM, 5 mM final concentration) at a rate of 35 μl/sec and a starting height of 150 μl.
Reading intervals: pre-incubation—10 sec×7 and 3 sec×3 antagonist phase—3 sec×17 and 10 sec×12
Addition plates (compound test plate and MES plate) are placed on the right and left positions in the FLIPR tray, respectively. Cell plates are placed in the middle position and the ASIC1a program is effectuated. FLIPR will then take the appropriate measurements in accordance with the interval settings above. Fluorescence obtained after stimulation is corrected for the mean basal fluorescence (in modified Assay Buffer).
The MES-induced peak calcium response, in the presence of test substance, is expressed relatively to the MES response alone. Test substances that block the MES-induced calcium response are re-tested in triplicates. Confirmed hits are picked for further characterization by performing full dose-response curves to determine potency of each hit compound as represented by the IC50 values (i.e., the concentration of the test substance which inhibits 50% of the MES-induced calcium response).
It is noted that the compounds below are not radiolabelled.

[1] = Liver microsomes stability and metabolite identification (LC-MS), rat; type: in vitro ADME
Text: (§1) The objective of this study is to analyze in vitro samples of Compound A and Compound B from rat and human microsomes using liquid chromatography quadrupole ion trap mass spectrometry and identify the nature of the metabolite(s) for each species.
(§2) The HPLC system consisted of a Thermo Surveror autosampler and a Thermo Surveyor MS pump (San Jose, Calif., USA). The LC-MS/MS system used was a Thermo LCQ Advantage (San Jose, Calif., USA). Data was acquired on a Dell Optiplex desktop computer (Round Rock, Tex., USA) equipped with operation system Windows XP professional. Data acquisition and analysis were performed using XCalibur 1.4 (San Jose, Calif., USA).
(§3) After the incubation period of the liver microsomes, the reaction was stopped with the addition of acetonitrile and frozen for transport. Before analysis, the samples were thawed at room temperature. They were vortexed vigorously and centrifuged at approximately 12000 g for 10 minutes. The supernatant was transferred into an injection vial for analysis.
(§4) A gradient mobile phase was used with a Thermo Phenyl 100×2 mm column with particle size of 5 μm. The initial mobile phase condition consisted of methanol and 0.1% formic acid solution at a ratio of 20:80, respectively. From 0 to 2 minutes, the ratio was maintained at 20:80. From 2 to 10 minutes, a linear gradient was applied and a ratio of 90:10 was maintained from 10 to 12 minutes. […] The flow rate was fixed at 0.25 mL/min.
(§5) The mass spectrometer was interfaced with the HPLC system using a pneumatic assisted electrospray ion source. The sheath gas was set to 15 units and the ESI electrode was set to 4000 V (positive mode). The capillary temperature was set at 300° C., and the capillary voltage was set to 13 V. The mass spectrometer was operating in full scan MS mode using one segment analysis (200-800).

[2] = Liver microsomes stability and metabolite identification (LC-MS), human; type: in vitro ADME
Text: as §1, §2, §3, §4, §5

[3] = Plasma composition analysis, parent compound and metabolites by MS; type: in vivo; settings: rat plasma; for Plasma Component: P-OH: Compound G: detected but not confirmed (footnote a)
Description: Rats receive compounds (5 mg/kg) dissolved in HPβCD 15%, dextrose 2.5%, pH 5 by intravenous (i.v). route or (25-30 mg/kg) dissolved in HPβCD 15%, dextrose 2.5%, […] (s.c.) route or (50-150 mg/kg) dissolved in HPβCD 15%, dextrose 2.5%, pH 5 by oral (p.o.) route. After the treatment, approximately 100 μl of blood sample is collected and the accurate bleeding time is recorded for each sample. Each blood sample is collected into Microvette blood collection tube containing anticoagulant lithium heparin. Following collection, the samples are centrifuged at […] for 15 minutes (to avoid haemolysis) and the plasma obtained from each is recovered and stored frozen (at −80° C.) pending analysis. Frozen samples are shipped on dry ice to quantify drug concentration within plasma after extraction procedure as previously described in Example 13.

[4] = test system: formalin-induced pain in Sprague-Dawley rats; test: Formalin model of acute tonic pain; type: in vivo, rat; settings: rat, in vivo
Description: Male Sprague-Dawley rats are housed together in groups of three animals under standard conditions with unrestricted access to food and water. All experiments are conducted according to the ethical guidelines for investigations of experimental pain in conscious animals (Zimmerman, 1983)
Assessment of formalin-induced flinching behavior in normal, uninjured rats (body weight 150-180 g) was made with the use of an Automated Nociception Analyser (University of California, San Diego, USA). Briefly, this involved placing a small C-shaped metal band (10 mm wide×27 mm long) on the hindpaw of the rat to be tested. The rats (four rats were included in each testing session) were then placed in a cylindrical plexiglass observation chamber (diameter 30.5 cm and height 15 cm) for 20 min for adaptation purposes prior to being administered drug or vehicle according to the experimental paradigm being followed. After adaptation, individual rats were then gently restrained and formalin (5% in saline, 50 μl, s.c.) was injected into the plantar surface of the hindpaw using a 27 G needle. Rats were then returned to their separate observation chambers, each of which were in turn situated upon an enclosed detection device consisting of two electromagnetic coils designed to produce an electromagnetic field in which movement of the metal band could be detected. The analogue signal was then digitised and a software algorithm (LabView) applied to enable discrimination of flinching behaviour from other paw movements. A sampling interval of 1 min was used and on the basis of the resulting response patterns 5 phases of nociceptive behaviour were identified and scored: first phase (P1; 0-5 min), interphase (Int; 6-15 min), second phase (P2; […]), phase 2A (P2A; 16-40 min) and phase 2B (P2B; 41-60 min).
Nociceptive behavior was also determined manually every 5 min by measuring the amount of time spent in each of four behavioral categories: 0, treatment of the injected hindpaw is indistinguishable from that of the contralateral paw; 1, the injected paw has little or no weight placed on it; 2, the injected paw is elevated and is not in contact with any surface; 3, the injected paw is licked, bitten, or shaken. A weighted nociceptive score, ranging from 0 to 3 was calculated by multiplying the time spent in each category by the category weight, summing these products, and dividing by the total time for each 5 min block of time. (Coderre et al., Pain 1993; 54: 43). On the basis of the resulting response patterns, 2 phases of nociceptive behavior were identified and scored: first phase (P1; 0-5 min), interphase (Int; 6-15 min), second phase (P2; […]), phase 2A (P2A; 16-40 min) and phase 2B (P2B; 41-60 min).
Statistical analysis was performed using Prism™ 4.01 software package (GraphPad, San Diego, Calif., USA). The difference in response levels between treatment groups and control vehicle group was analyzed using an ANOVA followed by Bonferroni's method for post-hoc pair-wise comparisons. A p value<0.05 was considered to be significant
The effect of Compound A on pain induced by intraplantar formalin injection was investigated. Compound A was administered i.p. 30 min. before the formalin. Compound A was able to reduce the total pain score behavior (flinching, licking, biting) in phase 1 and 2 of the formalin test.

[5] = Liver microsomes stability and metabolite identification (LC-MS), dog; type: in vitro ADME
[6] = rat microsomes 60 min (samples 8-10)
[7] = human microsomes 60 min (samples 17-19)
[8] = dog microsomes 60 min (samples 26-28)

## COc1ccc(F)cc1-c1cc2c(c3c1CCN(C)C3)NC(=O)/C2=N/O [Compound A (minor Z isomer isolated), 5-(5-fluoro-2-methoxyphenyl)-6,7,8,9-tetrahydro-3-(hydroxyimino)-8-methyl-1H-pyrrolo[3,2-h]isoquinoline-2(3H)-one]
ASIC1a
  IC50: 1000 nM

## CCN1CCc2c(-c3cc(F)ccc3OC)cc3c(c2C1)NC(=O)/C3=N/O [Compound B, 5-(5-fluoro-2-methoxyphenyl)-6,7,8,9-tetrahydro-3-(hydroxyimino)-8-ethyl-1H-pyrrolo[3,2-h]isoquinoline-2(3H)-one]
[1]; % peak area relative to parent at T0, 60 min incubation, rat microsomes
  Total % metabolites: 12.8%
[1]; [6]
  Compound B metabolite identification: m/z 342: Yes
  Compound B metabolite identification: m/z 356: Yes
  Compound B metabolite identification: m/z 370 (parent): Yes
  Compound B metabolite identification: m/z 386: Yes
[1]; rat microsomes, time 0 min
  Calc. Conc.: 4.95 µM
[1]; rat microsomes, time 60 min
  Calc. Conc.: 0.90 µM and 0.92 µM and 0.97 µM
[2]; % peak area relative to parent at T0, 60 min incubation, human microsomes
  Total % metabolites: 9.4%
[2]; [7]
  Compound B metabolite identification: m/z 342: Yes
  Compound B metabolite identification: m/z 356: low
  Compound B metabolite identification: m/z 370 (parent): Yes
  Compound B metabolite identification: m/z 386: Yes
[2]; human microsomes, time 0 min
  Calc. Conc.: 4.39 µM and 5.04 µM
[2]; human microsomes, time 60 min
  Calc. Conc.: 4.34 µM and 4.59 µM and 5.03 µM
[3]; IV 5 mg/kg
  Plasma Component: N-desMe or desEt: Trace
  Plasma Component: O-desMe: Trace
  Plasma Component: P—OH: Trace
[3]; PO 50 mg/kg
  Plasma Component: N-desMe or desEt: Trace
  Plasma Component: O-desMe: Trace
  Plasma Component: P—OH: Trace
[3]; SC 25 mg/kg
  Plasma Component: N-desMe or desEt: Trace
  Plasma Component: O-desMe: Trace
  Plasma Component: P—OH: Trace
[4]
  acute tonic pain induced by formalin injection in the paw: block
[5]; % peak area relative to parent at T0, 60 min incubation, dog microsomes
  Total % metabolites: 4.93%
[5]; [8]
  Compound B metabolite identification: m/z 342: very weak
  Compound B metabolite identification: m/z 356: very weak
  Compound B metabolite identification: m/z 370 (parent): Yes
  Compound B metabolite identification: m/z 386: low
[5]; dog microsomes, time 0 min
  Calc. Conc.: 4.44 µM and 4.56 µM
[5]; dog microsomes, time 60 min
  Calc. Conc.: 4.33 µM and 4.38 µM and 4.17 µM

## CCN1CCc2c(-c3cc(Cl)ccc3OC)cc3c(c2C1)NC(=O)/C3=N/O [Compound G, 5-(5-chloro-2-methoxyphenyl)-6,7,8,9-tetrahydro-3-(hydroxyimino)-8-ethyl-1H-pyrrolo[3,2-h]isoquinoline-2(3H)-one]
ASIC1a
  IC50: 300 nM
[3]; IV 5 mg/kg
  Plasma Component: N-desEt: Small
  Plasma Component: P-OH: Small ^a
[3]; IV 5 mg/kg (table of Compounds G and J)
  Plasma Component: O-desMe: Small
[3]; PO 50 mg/kg
  Plasma Component: N-desEt: Small
  Plasma Component: P-OH: Small ^a
[3]; PO 50 mg/kg (table of Compounds G and J)
  Plasma Component: O-desMe: Small

## CN1CCc2c(-c3cc(F)ccc3O)cc3c(c2C1)NC(=O)C3=NO [Compound L, 5-(5-Fluoro-2-hydroxyphenyl)-3-(hydroxyimino)-8-methyl-6,7,8,9-tetrahydro-1H-pyrrolo[3,2-h]isoquinolin-2(3H)-one]
ASIC1a
  IC50: 800 nM
